Legend:
[1] = tested on: powdery mildew primary infections; assay: controlling powdery mildew primary infections in perennial crops after application prior to the end of the previous vegetative cycle; format: in vivo; details: in the year of the application and also in the year after
powdery mildew species = details: on different crops; cited from earlier work

Q: Which results are given for `COC(c1ccc(Cl)cc1Cl)C(C)NC(=O)c1cn(C)nc1C(F)F` (stereo not drawn) [3-difluoromethyl-1-methyl-1H-pyrazole-4-carboxylic acid [2-(2,4-dichlorophenyl)-2-methoxy-1-methyl-ethyl]-amide]?
A: infection of new growing shoots and leaves [1]: delayed; number of early infected shoots [1]: significantly reduced

Q: For `O=C(NCCc1ncc(C(F)(F)F)cc1Cl)c1ccccc1C(F)(F)F` [fluopyram], which “efficacy against powdery mildew species” value (powdery mildew species) is on record?
A: high level of efficacy

Reference: patent US20140051735A1, “USE OF N-PHENYLETHYLPYRAZOLE CARBOXAMIDE DERIVATIVES OR SALTS THEREOF FOR CONTROLLING POWDERY MILDEW PRIMARY INFECTIONS” (BAYER INTELLECTUAL PROPERTY GMBH, priority 2010, published 2014)
